Experimental data reported in article PMC12311952, “Mechanism of SC targeting RhoA regulation and its potential value in gastric cancer therapy” (Biochemistry and Biophysics Reports, 2025).

Molecular target: RhoA (Homo sapiens, UniProt P61586)
Test: SPR (Biacore T200, RhoA immobilized on CM5 chip, […] Langmuir fit)
Format: binding

Sequence of RhoA (P61586 1-190): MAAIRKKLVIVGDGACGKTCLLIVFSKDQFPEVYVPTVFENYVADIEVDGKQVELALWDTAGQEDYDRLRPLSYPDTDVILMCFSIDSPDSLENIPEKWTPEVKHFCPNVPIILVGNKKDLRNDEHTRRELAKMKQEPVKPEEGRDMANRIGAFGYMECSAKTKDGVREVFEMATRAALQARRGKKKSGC

- Kd: 1590 nM
Compound: O=C(/C=C/CCc1ccc(O)c(O)c1)CCCCc1ccc(O)c(O)c1 [compound 5, (E)-1,9-bis(3,4-dihydroxyphenyl)non-3-en-5-one]
